The record followed here is ChEMBL document CHEMBL1144384, “Hypoxia-selective activation of 5-fluorodeoxyuridine prodrug possessing indolequinone structure: radiolytic reduction and cytotoxicity characteristics” (Bioorg Med Chem Lett, 2005).

What is called IC50 is the concentration that inhibits the measured activity by half.

This assay can be described thus: Inhibitory concentration required to reduce cellular survival to 50% towards murine tumor EMT6/KU cell line. In kind it is functional, cell-based. The following applies: Mus musculus.

`O=c1[nH]c(=O)n([C@H]2C[C@H](O)[C@@H](CO)O2)cc1F` [FLOXURIDINE]: the midpoint of inhibition, the IC50, lay at 8.1 µM.
